Source: patent US20100292231A1, “Indazole Compounds for Treating Inflammatory Disorders, Demyelinating Disorders and Cancers” (priority 2007, published 2010)
Where two headings read alike, the source gives them in different places.

What was measured:
Test in all cases: SelectScreen kinase specificity survey
Format in all cases: biochemical
AMPK A2/B1/G1 = molecular target: T1, AMPK A2/B1/G1 (Homo sapiens, UniProt P54619+P54646+Q9Y478); settings: estimated, abridged dose response curve, read-out: Kinase inhibitory activity EC50
T1 construct: purchased Invitrogen, Inc. (SelectScreen platform)
Summary of the method: (§1)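 Dose-response: 5 graded inhibitor additions per kinase, with ATP at 100 micromolar and detection by an optical reporter on a kinase-unique substrate. The sigmoid saturation fit has four parameters (Hill); EC50 is an estimate.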

ACVR1B (ALK4) = molecular target: T2, ACVR1B (ALK4) (Homo sapiens, UniProt P36896); settings: estimated, abridged dose response curve, read-out: Kinase inhibitory activity EC50
T2 construct: purchased Invitrogen, Inc. (SelectScreen platform)
Summary of the method: as §1

SRMS (Srm) = molecular target: T3, SRMS (Srm) (Homo sapiens, UniProt Q9H3Y6); settings: estimated, abridged dose response curve, read-out: Kinase inhibitory activity EC50
T3 construct: purchased Invitrogen (SelectScreen)
Summary of the method: as §1

EPHB1 = molecular target: T4, EPHB1 (Homo sapiens, UniProt P54762)
T4 construct: purchased Invitrogen (SelectScreen service)
Summary of the method: as §1

FLT3 D835Y = molecular target: T5, FLT3 D835Y (Homo sapiens, UniProt P36888, D835Y); settings: estimated, abridged dose response curve, read-out: Kinase inhibitory activity EC50
T5 construct: purchased Invitrogen (SelectScreen platform)
T5 sequence (P36888 27-993 D835Y): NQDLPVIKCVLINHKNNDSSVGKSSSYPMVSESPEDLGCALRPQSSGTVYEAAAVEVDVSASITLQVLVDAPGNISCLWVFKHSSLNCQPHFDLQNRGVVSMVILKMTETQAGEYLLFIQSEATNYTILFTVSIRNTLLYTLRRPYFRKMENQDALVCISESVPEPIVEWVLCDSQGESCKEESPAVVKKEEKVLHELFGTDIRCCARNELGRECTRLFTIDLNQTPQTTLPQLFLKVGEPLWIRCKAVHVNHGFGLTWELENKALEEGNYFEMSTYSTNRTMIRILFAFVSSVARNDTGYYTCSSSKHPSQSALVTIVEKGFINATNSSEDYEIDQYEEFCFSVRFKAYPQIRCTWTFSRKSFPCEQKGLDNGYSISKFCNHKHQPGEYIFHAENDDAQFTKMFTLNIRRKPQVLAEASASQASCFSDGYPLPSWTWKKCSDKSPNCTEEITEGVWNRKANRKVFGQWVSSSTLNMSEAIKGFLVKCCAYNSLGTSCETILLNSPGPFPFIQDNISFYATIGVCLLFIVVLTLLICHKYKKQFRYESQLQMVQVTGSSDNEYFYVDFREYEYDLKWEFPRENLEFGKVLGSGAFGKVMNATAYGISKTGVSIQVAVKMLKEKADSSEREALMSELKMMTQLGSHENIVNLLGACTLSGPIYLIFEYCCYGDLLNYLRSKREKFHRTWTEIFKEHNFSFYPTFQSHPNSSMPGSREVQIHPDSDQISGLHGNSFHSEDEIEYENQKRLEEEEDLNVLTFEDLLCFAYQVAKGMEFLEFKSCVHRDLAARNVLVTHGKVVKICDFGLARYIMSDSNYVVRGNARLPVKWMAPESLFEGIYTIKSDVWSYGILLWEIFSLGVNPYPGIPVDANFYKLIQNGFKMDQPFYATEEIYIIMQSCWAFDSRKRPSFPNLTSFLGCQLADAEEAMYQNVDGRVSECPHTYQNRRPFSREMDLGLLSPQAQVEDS
Summary of the method: as §1

JAK2 JH1 JH2 V617F = molecular target: T6, JAK2 JH1 JH2 V617F (Homo sapiens, UniProt O60674, V617F); settings: estimated, abridged dose response curve, read-out: Kinase inhibitory activity EC50
T6 construct: JAK2 JH1 JH2 V617F; purchased Invitrogen (SelectScreen platform)
Summary of the method: as §1

FGR = molecular target: T7, FGR (Homo sapiens, UniProt P09769); settings: estimated, abridged dose response curve, read-out: Kinase inhibitory activity EC50
T7 construct: purchased Invitrogen (SelectScreen)
Summary of the method: as §1

MAPK14 (p38 alpha) = molecular target: T8, MAPK14 (p38 alpha) (Homo sapiens, UniProt Q16539); settings: estimated, abridged dose response curve, read-out: Kinase inhibitory activity EC50
T8 construct: purchased Invitrogen, Inc. (SelectScreen service)

NTRK2 (TRKB) = molecular target: T9, NTRK2 (TRKB) (Homo sapiens, UniProt Q16620)
T9 construct: purchased Invitrogen (SelectScreen)
Summary of the method: as §1

MARK2 = molecular target: T10, MARK2 (Homo sapiens, UniProt Q7KZI7); settings: estimated, abridged dose response curve, read-out: Kinase inhibitory activity EC50
T10 construct: purchased Invitrogen, Inc. (SelectScreen platform)
Summary of the method: as §1

MARK1 (MARK) = molecular target: T11, MARK1 (MARK) (Homo sapiens, UniProt Q9P0L2); settings: estimated, abridged dose response curve, read-out: Kinase inhibitory activity EC50
T11 construct: purchased Invitrogen, Inc. (SelectScreen platform)
Summary of the method: as §1

FES (FPS) = molecular target: T12, FES (FPS) (Homo sapiens, UniProt P07332); settings: estimated, abridged dose response curve, read-out: Kinase inhibitory activity EC50
T12 construct: purchased Invitrogen (SelectScreen service)
Summary of the method: as §1

AMPK A1/B1/G1 = molecular target: T13, AMPK A1/B1/G1 (Homo sapiens, UniProt P54619+Q13131+Q9Y478); settings: estimated, abridged dose response curve, read-out: Kinase inhibitory activity EC50
T13 construct: purchased Invitrogen, Inc. (SelectScreen platform)
Summary of the method: as §1

YES1 (YES) = molecular target: T14, YES1 (YES) (Homo sapiens, UniProt P07947); settings: estimated, abridged dose response curve, read-out: Kinase inhibitory activity EC50
T14 construct: purchased Invitrogen (SelectScreen)
Summary of the method: as §1

T9 sequence (Q16620 32-822): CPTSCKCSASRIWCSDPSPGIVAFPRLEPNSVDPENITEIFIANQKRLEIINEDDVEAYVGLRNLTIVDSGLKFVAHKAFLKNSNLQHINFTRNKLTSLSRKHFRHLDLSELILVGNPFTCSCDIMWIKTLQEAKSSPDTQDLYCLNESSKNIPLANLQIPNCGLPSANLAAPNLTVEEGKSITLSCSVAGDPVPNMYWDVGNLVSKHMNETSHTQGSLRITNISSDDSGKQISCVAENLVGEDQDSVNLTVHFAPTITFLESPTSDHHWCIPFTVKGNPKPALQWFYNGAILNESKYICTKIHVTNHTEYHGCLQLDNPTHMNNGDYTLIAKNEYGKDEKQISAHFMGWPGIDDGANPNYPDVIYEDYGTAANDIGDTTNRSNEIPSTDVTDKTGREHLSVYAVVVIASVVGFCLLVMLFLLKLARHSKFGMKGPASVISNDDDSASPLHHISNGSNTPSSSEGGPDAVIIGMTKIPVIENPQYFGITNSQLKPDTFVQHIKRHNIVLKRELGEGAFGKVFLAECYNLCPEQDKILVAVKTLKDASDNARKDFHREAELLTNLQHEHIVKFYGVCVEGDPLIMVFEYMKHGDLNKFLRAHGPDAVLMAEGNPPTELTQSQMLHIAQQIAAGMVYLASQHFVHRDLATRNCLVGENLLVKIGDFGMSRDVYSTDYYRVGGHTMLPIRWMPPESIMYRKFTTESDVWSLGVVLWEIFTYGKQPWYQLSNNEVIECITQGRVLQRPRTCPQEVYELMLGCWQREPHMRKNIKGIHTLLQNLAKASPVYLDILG
T14 sequence (P07947 whole entry): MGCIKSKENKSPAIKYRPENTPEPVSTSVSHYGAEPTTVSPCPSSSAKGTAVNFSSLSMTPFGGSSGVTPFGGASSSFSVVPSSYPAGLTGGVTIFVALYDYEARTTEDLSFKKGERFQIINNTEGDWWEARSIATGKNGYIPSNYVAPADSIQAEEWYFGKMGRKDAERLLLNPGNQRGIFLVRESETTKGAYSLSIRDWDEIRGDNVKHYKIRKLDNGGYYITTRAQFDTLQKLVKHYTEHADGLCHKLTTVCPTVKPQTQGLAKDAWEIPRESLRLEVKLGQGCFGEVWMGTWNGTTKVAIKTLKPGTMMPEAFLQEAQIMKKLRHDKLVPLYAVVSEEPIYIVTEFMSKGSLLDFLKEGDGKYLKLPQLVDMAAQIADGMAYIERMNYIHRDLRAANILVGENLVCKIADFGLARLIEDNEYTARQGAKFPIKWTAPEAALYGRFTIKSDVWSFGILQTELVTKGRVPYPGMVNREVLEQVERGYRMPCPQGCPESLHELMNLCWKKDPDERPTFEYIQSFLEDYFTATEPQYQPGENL
T13 sequence (Q13131 whole entry): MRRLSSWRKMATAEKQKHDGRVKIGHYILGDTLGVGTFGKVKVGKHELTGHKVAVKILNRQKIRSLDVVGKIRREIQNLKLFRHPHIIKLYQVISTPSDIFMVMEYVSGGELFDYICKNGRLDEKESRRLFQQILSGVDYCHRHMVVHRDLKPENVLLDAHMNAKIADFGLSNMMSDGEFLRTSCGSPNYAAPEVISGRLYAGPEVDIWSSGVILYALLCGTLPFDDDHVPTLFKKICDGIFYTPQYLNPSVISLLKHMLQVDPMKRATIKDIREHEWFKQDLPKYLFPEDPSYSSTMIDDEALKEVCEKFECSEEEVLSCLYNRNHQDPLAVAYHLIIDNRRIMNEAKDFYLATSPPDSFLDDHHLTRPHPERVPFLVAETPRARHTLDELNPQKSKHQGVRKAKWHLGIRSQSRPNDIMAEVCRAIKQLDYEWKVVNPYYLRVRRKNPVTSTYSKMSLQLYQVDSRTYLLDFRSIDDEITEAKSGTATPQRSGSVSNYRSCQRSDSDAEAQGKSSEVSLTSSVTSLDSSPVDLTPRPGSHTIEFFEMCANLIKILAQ
T13 sequence (Q9Y478 whole entry partner): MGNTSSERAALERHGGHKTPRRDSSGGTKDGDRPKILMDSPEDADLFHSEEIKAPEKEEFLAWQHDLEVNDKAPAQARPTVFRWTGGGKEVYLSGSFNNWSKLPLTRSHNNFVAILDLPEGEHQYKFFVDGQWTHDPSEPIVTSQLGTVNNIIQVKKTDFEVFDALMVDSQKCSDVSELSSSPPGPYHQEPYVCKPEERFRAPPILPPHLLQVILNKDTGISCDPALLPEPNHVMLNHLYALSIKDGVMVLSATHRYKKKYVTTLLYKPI
T13 sequence (P54619 whole entry partner): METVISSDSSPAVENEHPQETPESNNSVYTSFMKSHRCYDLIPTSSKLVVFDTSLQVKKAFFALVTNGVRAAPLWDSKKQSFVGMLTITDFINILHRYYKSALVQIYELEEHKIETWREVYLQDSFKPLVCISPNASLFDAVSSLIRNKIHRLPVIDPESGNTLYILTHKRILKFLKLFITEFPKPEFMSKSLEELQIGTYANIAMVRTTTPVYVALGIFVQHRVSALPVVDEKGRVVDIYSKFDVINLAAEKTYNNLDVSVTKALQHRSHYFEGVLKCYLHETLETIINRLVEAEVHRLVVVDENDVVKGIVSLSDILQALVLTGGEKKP
T11 sequence (Q9P0L2 whole entry): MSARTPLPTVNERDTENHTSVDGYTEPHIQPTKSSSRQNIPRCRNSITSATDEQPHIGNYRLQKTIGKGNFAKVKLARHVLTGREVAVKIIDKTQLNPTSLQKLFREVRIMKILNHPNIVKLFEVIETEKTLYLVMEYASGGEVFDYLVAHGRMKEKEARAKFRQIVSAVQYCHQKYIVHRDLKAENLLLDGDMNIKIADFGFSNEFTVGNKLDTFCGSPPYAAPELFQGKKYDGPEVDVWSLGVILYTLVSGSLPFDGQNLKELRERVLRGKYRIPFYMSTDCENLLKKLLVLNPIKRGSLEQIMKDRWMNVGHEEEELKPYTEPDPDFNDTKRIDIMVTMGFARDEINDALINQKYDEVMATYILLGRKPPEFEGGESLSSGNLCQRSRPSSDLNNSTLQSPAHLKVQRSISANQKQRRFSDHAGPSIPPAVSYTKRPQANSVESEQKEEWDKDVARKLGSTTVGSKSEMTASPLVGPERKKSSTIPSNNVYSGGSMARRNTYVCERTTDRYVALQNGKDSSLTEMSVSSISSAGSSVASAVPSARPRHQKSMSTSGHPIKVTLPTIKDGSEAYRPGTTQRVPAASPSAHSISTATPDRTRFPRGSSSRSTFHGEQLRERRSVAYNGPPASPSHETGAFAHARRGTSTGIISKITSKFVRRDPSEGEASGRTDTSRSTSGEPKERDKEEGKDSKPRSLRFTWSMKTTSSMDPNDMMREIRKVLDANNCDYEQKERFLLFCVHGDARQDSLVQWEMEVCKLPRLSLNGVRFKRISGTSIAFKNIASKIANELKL
T7 sequence (P09769 whole entry): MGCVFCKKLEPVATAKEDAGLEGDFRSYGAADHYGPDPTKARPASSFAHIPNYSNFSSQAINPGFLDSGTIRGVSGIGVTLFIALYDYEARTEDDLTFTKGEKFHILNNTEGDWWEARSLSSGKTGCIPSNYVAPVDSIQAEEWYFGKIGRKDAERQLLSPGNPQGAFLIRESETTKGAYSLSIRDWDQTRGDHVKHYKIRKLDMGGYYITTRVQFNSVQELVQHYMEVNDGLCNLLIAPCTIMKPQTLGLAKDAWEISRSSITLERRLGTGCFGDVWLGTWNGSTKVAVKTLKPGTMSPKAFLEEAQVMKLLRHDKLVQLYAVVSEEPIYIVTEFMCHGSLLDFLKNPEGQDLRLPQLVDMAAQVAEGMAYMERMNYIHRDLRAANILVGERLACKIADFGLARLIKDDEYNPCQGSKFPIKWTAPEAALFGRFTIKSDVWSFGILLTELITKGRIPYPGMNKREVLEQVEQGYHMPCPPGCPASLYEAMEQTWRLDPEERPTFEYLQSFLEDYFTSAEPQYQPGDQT
T8 sequence (Q16539 whole entry): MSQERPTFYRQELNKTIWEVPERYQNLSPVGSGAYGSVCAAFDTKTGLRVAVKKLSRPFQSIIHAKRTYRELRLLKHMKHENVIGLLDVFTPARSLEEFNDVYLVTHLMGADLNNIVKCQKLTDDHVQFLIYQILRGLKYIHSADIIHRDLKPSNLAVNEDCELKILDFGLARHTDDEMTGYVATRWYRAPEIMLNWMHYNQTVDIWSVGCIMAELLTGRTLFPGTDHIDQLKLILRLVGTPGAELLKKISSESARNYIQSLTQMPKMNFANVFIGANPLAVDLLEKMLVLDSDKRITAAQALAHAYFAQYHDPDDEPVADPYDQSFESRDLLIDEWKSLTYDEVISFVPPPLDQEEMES
T3 sequence (Q9H3Y6 whole entry): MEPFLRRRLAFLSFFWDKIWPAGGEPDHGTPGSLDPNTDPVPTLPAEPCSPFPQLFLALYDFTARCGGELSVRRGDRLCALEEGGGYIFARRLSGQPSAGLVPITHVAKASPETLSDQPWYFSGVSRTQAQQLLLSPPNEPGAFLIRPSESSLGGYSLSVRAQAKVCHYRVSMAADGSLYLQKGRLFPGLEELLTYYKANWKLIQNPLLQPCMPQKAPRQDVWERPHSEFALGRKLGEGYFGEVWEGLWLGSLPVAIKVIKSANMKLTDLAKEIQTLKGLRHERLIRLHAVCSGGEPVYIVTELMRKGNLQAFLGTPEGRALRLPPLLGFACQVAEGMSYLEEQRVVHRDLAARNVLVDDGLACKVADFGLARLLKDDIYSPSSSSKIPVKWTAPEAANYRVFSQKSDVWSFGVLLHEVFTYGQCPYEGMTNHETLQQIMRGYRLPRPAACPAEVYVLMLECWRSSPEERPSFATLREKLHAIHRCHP

| Compound | EC50 (AMPK A2/B1/G1) [nM] | EC50 (ACVR1B (ALK4)) [nM] | EC50 (SRMS (Srm)) [nM] | EC50 (EPHB1) [nM] | EC50 (FLT3 D835Y) [nM] | EC50 (JAK2 JH1 JH2 V617F) [nM] | EC50 (FGR) [nM] | EC50 (MAPK14 (p38 alpha)) [nM] | EC50 (NTRK2 (TRKB)) [nM] | EC50 (MARK2) [nM] | EC50 (MARK1 (MARK)) [nM] | EC50 (FES (FPS)) [nM] | EC50 (AMPK A1/B1/G1) [nM] | EC50 (YES1 (YES)) [nM] | EC50 (EPHB1; EPHB1, estimated, abridged dose response curve, read-out: Kinase inhibitory activity EC50) [nM] | EC50 (NTRK2 (TRKB); NTRK2 (TRKB), estimated, abridged dose response curve, read-out: Kinase inhibitory activity EC50) [nM] |
| --- | --- | --- | --- | --- | --- | --- | --- | --- | --- | --- | --- | --- | --- | --- | --- | --- |
| CCN(CC)CCNc1ccc2ncn3c4ccc(O)cc4c(=O)c1c23 [Symadex, 5-(2-(diethylamino)ethylamino)-8-hydroxy-6H-imidazo[4,5,1-de]acridin-6-one, reference compound] | 1790 | > 5000 | > 5000 | > 5000 | 3 | > 5000 | 1270 | 2970 | > 5000 | 2020 | 3190 | 1050 | 3480 | > 5000 | – | – |
| CN(C)CCCNc1ccc2ncn3c4ccc5[nH]ncc5c4c(=O)c1c23 [Compound (IV)] | 1570 | > 5000 | > 5000 | – | 1 | > 5000 | 367 | 3790 | – | 3490 | > 5000 | 2250 | > 5000 | 1570 | > 5000 | 780 |
